Measured values from patent US7776912B2, “Acetals of nepetalic acid and method of preparation” (E.I. du Pont de Nemours and Company, priority 2006, dated 2010).

Tested on: Aedes aegypti mosquitoes
Assay: in vitro Gupta box landing assay (insect repellency)
Assay type: in vivo
Conditions: 1% (w/v) in IPA, mean of three replicates; for % Mean repellency: 25 μl applied to Baudruche membrane over bovine blood, landings recorded over 20 min, (C−T)/C×100 vs IPA control well; for Mean time to first landing / Mean number of total landings: 25 μl on membrane; for Mean time to first landing: about 250 female Aedes aegypti; for Mean number of total landings: recorded at 2 min intervals over 20 min
Method: The products of Examples 1-6 were evaluated for the insect repellency against Aedes aegypti mosquitoes in the in vitro Gupta box landing assay. In this method, a chamber contained 5 wells, each covered by a Baudruche (animal intestine) membrane. Each well was filled with bovine blood, containing sodium citrate (to prevent clotting) and ATP (72 mg ATP disodium salt per 26 ml of blood), and heated to 37° C. A volume of 25 μl of isopropyl alcohol(IPA) containing one test specimen, or DEET as a control, was applied to each membrane. The concentrations were all 1% w/v in IPA except where otherwise indicated. The control was a membrane surface treated with a 1% solution of DEET.
After 5 min, approximately 250 4-day-old female Aedes aegypti mosquitoes were introduced into the chamber. The number of mosquitoes probing the membranes for each treatment was recorded at 2 min intervals over 20 min. Each datum represents the mean of three replicate experiments.
C=the total number of landings on the IPA control well, and
T=the total number of landings on the test solution well.
The % mean repellencies at 1% (w/v) are depicted in Table 2 in addition to mean time to first landing, and mean number of total landings for the nepetalic acid acetals of Examples 1-6 and for DEET as a control.

Row | SMILES | % Mean repellency [%] | Mean time to first landing [min] | Mean number of total landings
1 | CCN(CC)C(=O)c1cccc(C)c1 [DEET, N,N-diethyltoluamide, reference compound] | 68.60 | 3.5 | 17.7
2 | COC1OC(=O)[C@H]2[C@H](CC[C@@H]2C)C1C (stereo partly drawn) [Example 1, (4aR,7S,7aR)-3-methoxy-4,7-dimethylhexahydrocyclopenta[c]pyran-1(3H)-one] | 79.30 | 3.2 | 12.2
3 | CCOC1OC(=O)[C@H]2[C@H](CC[C@@H]2C)C1C (stereo partly drawn) [Example 2, (4aR,7S,7aR)-3-ethoxy-4,7-dimethylhexahydrocyclopenta[c]pyran-1(3H)-one] | 52.40 | 5.2 | 26.4
4 | CCCOC1OC(=O)[C@H]2[C@H](CC[C@@H]2C)C1C (stereo partly drawn) [Example 3, (4aR,7S,7aR)-3-n-propoxy-4,7-dimethylhexahydrocyclopenta[c]pyran-1(3H)-one] | 89.10 | 11.6 | 5.2
5 | CC(C)OC1OC(=O)[C@H]2[C@H](CC[C@@H]2C)C1C (stereo partly drawn) [Example 4, (4aR,7S,7aR)-3-isopropoxy-4,7-dimethylhexahydrocyclopenta[c]pyran-1(3H)-one] | 73.20 | 2.8 | 30.6
6 | CCCCOC1OC(=O)[C@H]2[C@H](CC[C@@H]2C)C1C (stereo partly drawn) [Example 5, (4aR,7S,7aR)-3-n-butoxy-4,7-dimethylhexahydrocyclopenta[c]pyran-1(3H)-one] | 17.80 | 2.8 | 33.8
7 | CC(C)COC1OC(=O)[C@H]2[C@H](CC[C@@H]2C)C1C (stereo partly drawn) [Example 6, (4aR,7S,7aR)-3-isobutoxy-4,7-dimethylhexahydrocyclopenta[c]pyran-1(3H)-one] | 20.40 | 2.0 | 91.6
